# From patent US4605744A, “Imidazole derivatives” (Hoffmann-La Roche Inc., priority 1985, dated 1986)
# Counter-ions that a name gives are not always drawn.
# Key:
# S. pneumoniae 6302 [1] = experiment: In vivo antibacterial activity (PD50); conditions: Streptococcus pneumoniae, 6302, sc, challenge 1000 LD50s, 1 treatment, Table 11
# Method: (§2) The results in these Tables and the PD50 's were determined by the procedure set forth on page 160 in Beskid et al., Antimicrobial Agents and Chemotherapy, Vol. 20, No. 2 pp. 159-167 (Aug. 1981) for "in vivo studies".
# P. aeruginosa 503-56 = experiment: In vivo antibacterial activity (PD50); conditions: Pseudomonas aeruginosa, 50356, sc, challenge 50 LD50s, 2 treatments, Table 11
# E. coli 5152 [2] = experiment: In vivo antibacterial activity (PD50); conditions: Escherichia coli, 5152, sc, challenge 4780 LD50s, 2 treatments, Table 11
# E. cloacae 6951 = experiment: In vivo antibacterial activity (PD50); conditions: Enterobacter cloacae, 6951, sc, challenge 3162 LD50s, 2 treatments, Table 11
# Method: as §2
# P. aeruginosa B = experiment: In vitro antibacterial activity (MIC); type: cell-based; conditions: Pseudomonas aeruginosa, read-out: MIC
# Outline: (§1)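 Twofold-style dilution series (128 to 0.008 μg/ml) made in Mueller-Hinton broth, dispensed, then inoculated with 1.5 μl of a 10^-2 overnight-culture dilution. Plates sealed, held overnight at 37° C, inspected with a viewer.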
# P. mirabilis 90 = experiment: In vitro antibacterial activity (MIC); type: cell-based; conditions: Proteus mirabilis, 90, P. mirabilis 90; read-out: MIC
# Outline: as §1
# E. coli 48 = experiment: In vitro antibacterial activity (MIC); type: cell-based; conditions: Escherichia coli, 48, E. coli 48; read-out: MIC
# Outline: as §1
# K. pneumoniae 503-994 = experiment: In vitro antibacterial activity (MIC); type: cell-based; conditions: Klebsiella pneumoniae, 503994, K. pneumoniae 503-994; read-out: MIC
# Outline: as §1
# P. aeruginosa 6148B = experiment: In vitro antibacterial activity (MIC); type: cell-based; conditions: Pseudomonas aeruginosa, read-out: MIC
# Outline: as §1
# E. cloacae 214 = experiment: In vitro antibacterial activity (MIC); type: cell-based; conditions: Enterobacter cloacae, 214, E. cloacae 214; read-out: MIC
# Outline: as §1
# S. schottmuelleri = experiment: In vitro antibacterial activity (MIC); type: cell-based; conditions: read-out: MIC
# Outline: as §1
# E. cloacae P99 = experiment: In vitro antibacterial activity (MIC); type: cell-based; conditions: Enterobacter cloacae, P99, E. cloacae P99
# Outline: as §1
# C. diversus CDC 1663-72 = experiment: In vitro antibacterial activity (MIC); type: cell-based; conditions: Citrobacter koseri, CDC166372; C. diversus CDC 1663-72; read-out: MIC
# Outline: as §1
# P. aeruginosa 5700 = experiment: In vitro antibacterial activity (MIC); type: cell-based; conditions: Pseudomonas aeruginosa, 5700, P. aeruginosa 5700; read-out: MIC
# Outline: as §1
# S. marcescens S5 = experiment: In vitro antibacterial activity (MIC); type: cell-based; conditions: Serratia marcescens, S5, S. marcescens S5; read-out: MIC
# Outline: as §1
# E. cloacae 5699 = experiment: In vitro antibacterial activity (MIC); type: cell-based; conditions: Enterobacter cloacae, 5699, E. cloacae 5699; read-out: MIC
# Outline: as §1
# P. vulgaris 100 = experiment: In vitro antibacterial activity (MIC); type: cell-based; conditions: Proteus vulgaris, 100
# Outline: as §1
# P. mirabilis 2 = experiment: In vitro antibacterial activity (MIC); type: cell-based; conditions: Proteus mirabilis, 2, P. mirabilis 2; read-out: MIC
# Outline: as §1
# P. aeruginosa 503-820 = experiment: In vitro antibacterial activity (MIC); type: cell-based; conditions: Pseudomonas aeruginosa, 503820; P. aeruginosa 503-820; read-out: MIC
# Outline: as §1
# S. pneumoniae 6302 [3] = experiment: In vitro antibacterial activity (MIC); type: cell-based; conditions: Streptococcus pneumoniae, 6302, S. pneumoniae 6302; read-out: MIC
# Outline: as §1
# P. aeruginosa 8780 = experiment: In vitro antibacterial activity (MIC); type: cell-based; conditions: Pseudomonas aeruginosa; P. aeruginosa 8780; read-out: MIC
# Outline: as §1
# P. aeruginosa 5712 = experiment: In vitro antibacterial activity (MIC); type: cell-based; conditions: Pseudomonas aeruginosa; P. aeruginosa 5712; read-out: MIC
# Outline: as §1
# S. marcescens S714 = experiment: In vitro antibacterial activity (MIC); type: cell-based; conditions: Serratia marcescens, S714, S. marcescens S714; read-out: MIC
# Outline: as §1
# E. coli 5152 [4] = experiment: In vitro antibacterial activity (MIC); type: cell-based; conditions: Escherichia coli, 5152
# Outline: as §1
# E. cloacae 9295 = experiment: In vitro antibacterial activity (MIC); type: cell-based; conditions: Enterobacter cloacae, 9295, E. cloacae 9295; read-out: MIC
# Outline: as §1
# S. faecalis C1 = experiment: In vivo antibacterial activity (PD50); conditions: Enterococcus faecalis, C1; sc; challenge 10 LD50s; 1 treatment; Table 11
# Method: as §2
# E. coli 257 [5] = experiment: In vivo antibacterial activity (PD50); conditions: Escherichia coli, 257, sc, challenge >10^4 LD50s, 1 treatment, Table 11
# K. pneumoniae HE7 = experiment: In vivo antibacterial activity (PD50); conditions: Klebsiella pneumoniae, HE7, sc, challenge 1000 LD50s, 2 treatments, Table 11
# Method: as §2
# P. aeruginosa 6799 = experiment: In vivo antibacterial activity (PD50); conditions: Pseudomonas aeruginosa, 6799, sc, sc; challenge 71 LD50s; 2 treatments; Table 11; read-out: PD50
# Method: as §2
# P. aeruginosa 6719 = experiment: In vivo antibacterial activity (PD50); conditions: Pseudomonas aeruginosa, 6719, sc, challenge 2290 LD50s, 2 treatments, Table 11
# Method: as §2
# S. aureus Smith = experiment: In vivo antibacterial activity (PD50); conditions: Staphylococcus aureus, sc, challenge 70 LD50s, 2 treatments, Table 11
# E. coli 257 [6] = experiment: In vitro antibacterial activity (MIC, Mueller-Hinton broth); type: cell-based; conditions: Escherichia coli, 257, E. coli 257; read-out: MIC
# Outline: as §1
# S. marcescens SM = experiment: In vivo antibacterial activity (PD50); conditions: Serratia marcescens; sc; challenge 489 LD50s; 2 treatments; Table 11
# Method: as §2
# S. pyogenes 4 = experiment: In vivo antibacterial activity (PD50); conditions: Streptococcus pyogenes, 4, sc, read-out: PD50
structure (smiles),measurement,setting,value
"CC1(C)S[C@@H]2[C@H](N=CN3CCC(CCC4=NCCN4)CC3)C(=O)N2[C@H]1C(=O)O [N, [2S-(2alpha,5alpha,6beta)]-6-[[[4-[4,5-dihydro-1H-imidazol-2-yl)ethyl]-1-piperidinyl]methylene]amino]-3,3-dimethyl-7-oxo-4-thia-1-azabicyclo[3.2.0]heptane-2-carboxylic acid hydrochloride]",ED50,S. pneumoniae 6302 [1],78 mg/kg
same,ED50,P. aeruginosa 503-56,43 mg/kg
same,ED50,E. coli 5152 [2],30 mg/kg
same,ED50,E. cloacae 6951,< 2 mg/kg
same,MIC,P. aeruginosa B,0.062 µg/mL
same,MIC,P. mirabilis 90,0.125 µg/mL
same,MIC,E. coli 48,0.031 µg/mL
same,MIC,K. pneumoniae 503-994,0.062 µg/mL
same,MIC,P. aeruginosa 6148B,32 µg/mL
same,MIC,E. cloacae 214,0.062 µg/mL
same,MIC,S. schottmuelleri,0.031 µg/mL
same,MIC,E. cloacae P99,0.016 µg/mL
same,MIC,C. diversus CDC 1663-72,0.031 µg/mL
same,MIC,P. aeruginosa 5700,0.062 µg/mL
same,MIC,S. marcescens S5,0.25 µg/mL
same,MIC,E. cloacae 5699,0.062 µg/mL
same,MIC,P. vulgaris 100,0.5 µg/mL
same,MIC,P. mirabilis 2,0.125 µg/mL
same,MIC,P. aeruginosa 503-820,16 µg/mL
same,MIC,S. pneumoniae 6302 [3],2 µg/mL
same,MIC,P. aeruginosa 8780,128 µg/mL
same,MIC,P. aeruginosa 5712,64 µg/mL
same,MIC,S. marcescens S714,0.125 µg/mL
same,MIC,E. coli 5152 [4],8 µg/mL
same,MIC,E. cloacae 9295,0.125 µg/mL
same,ED50,S. faecalis C1,62 mg/kg
same,ED50,E. coli 257 [5],< 1 mg/kg
same,ED50,K. pneumoniae HE7,> 250 mg/kg
same,ED50,P. aeruginosa 6799,> 250 mg/kg
same,ED50,P. aeruginosa 6719,22 mg/kg
same,ED50,S. aureus Smith,12 mg/kg
same,MIC,E. coli 257 [6],0.031 µg/mL
same,ED50,S. marcescens SM,19 mg/kg
same,ED50,S. pyogenes 4,4.3 mg/kg
